According to patent publication US9056140B2, “Pharmaceutical compound” (priority 2007, dated 2015):

Tests used:
[1] = system: MCF-7 cells (ER-positive breast cancer cell line); test: LDH release assay, cell survival of MCF-7 monolayers; type: cell-based, human; settings: FIG. 2; saporin 500 nM, raloxifene 1000 nM, alone or as admixture
Procedure: (§1) Cell survival (%) for each cell line is calculated according to a standard lactate dehydrogenase (LDH) release assay, where […] (0% survival) corresponds to cells treated with 50 μg/ml of Mitomycin C and […] (100%) survival corresponds to cells treated only with complete medium.
The MCF-7 cell line (ECACC, catalogue no. 86012803) was isolated from a breast adenocarcinoma in a person and it expresses the estrogen receptor. The cell line was maintained in Minimum Essential Medium (Sigma) supplemented with 2 mM L-Gln (Sigma), 1% Non Essential amino acids (Sigma), 100 IU Penicillin, 100 μg/ml Streptomycin (Sigma) and, as complete medium, 10% Foetal Calf Serum (FCS) (Sigma).
(§2) Cultures of MCF-7, HCC-1143 and OVCAR-3 were harvested at approximately 80% confluency by trypsinisation and after washing once in serum free medium, used to seed Flat bottom 96-well plates (Nunc) with 5×10^3 cells per well in 200 μl of complete medium. […]
(§3) The detection reagent from the CytoTox 96® Non-Radioactive Cytotoxicity Assay kit (Promega) was prepared as per manufacturer's instruction and 50 μl/well of detection reagent was added to all wells. After 30 minutes incubation in the dark at room temperature, the reaction was stopped by adding 50 μl/well of Stop solution to all wells and the absorbance of each well at 490 nm was established.

[2] = system: HCC-1143 cells (ER-negative breast cancer cell line); test: LDH release assay, cell survival of HCC-1143 monolayers; type: cell-based, human; settings: FIG. 2; raloxifene 1000 nM
Procedure: as §1
The cell line was maintained in RPMI-1640 (Sigma) supplemented with 2 mM L-Gln (Sigma), 10 mM HEPES (Sigma), 1 mM Na-Pyr (Sigma), 100 IU Penicillin, 100 μg/ml Streptomycin (Sigma) and, as complete medium, 10% FCS (Sigma).
Cultures of MCF-7, HCC-1143 and OVCAR-3 were harvested at approximately 80% confluency by trypsinisation and after washing once in serum free medium, used to seed Flat bottom 96-well plates (Nunc) with 5×10^3 cells per well in 200 μl of complete medium.
Following 18 hours incubation at 37° C., the test compounds were removed and 200 μl/well of complete medium added to each well. […]
as §3

[3] = system: OVCAR-3 cells (ovarian ER positive cell line); test: LDH release assay, cell survival of OVCAR-3 monolayers; type: cell-based, human; settings: FIG. 2; raloxifene 1000 nM
Procedure: as §1
Finally, the NIH:OVCAR-3 cells (ATTC, catalogue no. HTB-161) was isolated from an ovary adenocarcinoma in a person and it expresses the estrogen receptor. The cell line was maintained in RPMI-1640 (Sigma) supplemented with 2 mM L-Gln (Sigma), 10 mM HEPES (Sigma), 1 mM Na-Pyr (Sigma), 0.01 mg/ml Bovine Insulin (Sigma), 100 IU Penicillin, 100 μg/ml Streptomycin (Sigma) and, as complete medium, 20% FCS (Sigma).
as §2, §3

[4] = system: MCF-7 tumors; test: In vivo anti-tumor activity, MCF-7 tumors in nude female mice; settings: i.v. retro-orbital, days 36 and 43
Procedure: Animals received intravenous treatment via the retro-orbital route on days 36 and 43 post challenge.
Thirty (30) nude female mice (nu/nu), 6-8 weeks old, were challenged subcutaneously with 2×10^7 MCF-7 cells delivered in combination with Matrigel (Becton Dickinson) (200 μl total volume). Weight loss and tumor growth (calculated by taking two perpendicular measurements and applying the formula [Π*((min measurement)/2)^2*(maximum measurement)]) were monitored daily until the end of the study.
Statistical differences were calculated using non-parametric Mann-Whitney assays and considered significant if p<0.05.
Control animals received either PBS or the same doses of raloxine via the same route.
Due to the natural susceptibility of MCF-7 cells to estrogen production, daily tumor volume variation in the nude mice model used follows sinusoidal pattern with a period of approximately 4/5 days (see FIG. 3). The duration of this period correlates with the duration of the oestrus cycle in mice (i.e. 4/5 days). As a result, and in order to facilitate experimental analysis, FIG. 3 represents tumor volume variations for each experimental group both as daily changes and as moving averages (i.e. a trend line) for overlapping 5 day periods (i.e. overlap is 4 days per point).

[5] = cited from earlier work
[6] = patients taking raloxifene daily

| Compound | lethal effect on MCF-7 cells [1] | lethal effect on HCC-1143 cells [2] | lethal effect on OVCAR-3 cells [3] | tumor growth compared to PBS control group ([4]; peak blood concentration 0.1 nM conjugate or 0.1 ng/ml raloxifene) | tumor growth compared to PBS control group ([4]; peak blood concentration 0.2 nM conjugate or 0.2 ng/ml raloxifene) | tumor volume / tumor growth ([4]; peak blood concentration 0.4 nM conjugate or 0.4 ng/ml raloxifene, vs PBS) | reducing the incidence of estrogen receptor positive breast cancer ([5]; clinical trial, vs tamoxifen) | fewer blood clots than women taking tamoxifen daily [5, 6] [%] | fewer uterine cancers than women taking tamoxifen daily [5, 6] [%] |
| --- | --- | --- | --- | --- | --- | --- | --- | --- | --- |
| O=C(c1ccc(OCCN2CCCCC2)cc1)c1c(-c2ccc(O)cc2)sc2cc(O)ccc12 [Raloxifene] | selective significant (p<0.05) effect | not against | not against | did not result in any changes | did not result in any changes | maintenance or slight reduction of tumor size over time | as effective as tamoxifen | 29 | 36 |
| saporin | no significant (p>0.05) lethal effect |  |  |  |  |  |  |  |  |
